{
  "source": "patent US10328062B2",
  "about": "“Biomarkers and use of MET inhibitor for treatment of cancer” (AMGEN, INC., priority 2014, dated 2019)",
  "key": {"[1]": {"tested_on": "MET signaling (phospho-MET, phospho-Gab1, phospho-AKT, phospho-ERK) in MKN45, SNU-620 and SNU-5", "assay": "Immunoblot analysis of PI3K and MAPK signaling pathways", "assay_type": "cell-based, Human", "details": "100 nM, 2 hours", "procedure": "Cells were seeded in 10 cm dishes at varying densities and allowed to adhere by incubating at 37° C. and 5% CO2 overnight. […] Cells were harvested in 250 μL lysis buffer containing protease and phosphatase inhibitors. For suspension cell lines, cells were pelleted prior to lysis buffer addition. Protein concentrations for individual lysates were measured using a BCA protein assay. 25 μg of protein lysate per sample was resolved on Life Technologies (Carlsbad, Calif.) NuPAGE Bis-Tris gels per manufacturer's. Samples were transferred to nitrocellulose membranes for Western blot analysis. Membranes were blocked in 5% milk prepared in TBST for 1 hour at room temperature. Total and phospho-specific antibodies for specified endpoints were used at 1:1000 dilutions in 5% milk/TBST (total) or 5% BSA/TBST (phospho). Membranes were incubated in the presence of appropriate primary antibody overnight at 4° C. Secondary anti-species-IgG HRP conjugated antibodies were diluted 1:5000 in 5% milk/TBST and incubated in the presence of membranes for 1 hour at room temperature. Membranes were exposed to Thermo Scientific (Waltham, Mass.) Super Signal PICO West ECL detection reagent per manufacturer's recommended protocol and exposed to film to document signal.\nAntibodies detecting total and phospho-MET (Y1234/1235), phospho-Gab1 (Y627), total and phospho-AKT (S473), total and phospho-ERK (T202/Y204), cleaved caspase-3, and cleaved PARP were purchased from Cell Signaling Technologies (Beverly, Mass.). The total β-actin antibody was purchased from Thermo Scientific (Waltham, Mass.). Both secondary anti-rabbit and anti-mouse IgG-HRP conjugated antibodies were purchased from Thermo Scientific (Waltham, Mass.).\nSubsequent lysates were analyzed by SDS-PAGE and immunoblot using antibodies detecting total and phospho-MET (Y1234/[…]), phospho-Gab1 (Y627), total and phospho-AKT (S473), and total and phospho-ERK 1/2 (T202/Y204)."}, "[2]": {"assay": "Phase 1 Study 20101132 safety", "assay_type": "in vivo", "procedure": "(§1) Eligible subjects have disease that is refractory or resistant to standard treatments or disease for which no standard therapy exists.\nSafety is assessed according to Common Terminology Criteria for Adverse Events (CTCAE) v4.0 criteria and the DLT (dose limiting toxicity) window is 28 days. Dose escalation is proceeding with a modified 3+3+3 design, which defines the MTD (maximum tolerated dose) to have been exceeded when ≥3 subjects in a cohort experience a DLT.\nEnrollment is proceeding as follows: if no DLT is observed within the first 28 days in the initial 3 to 4 subjects of a cohort, dose escalation to the next higher dose level cohort will occur. If 1 DLT is observed, 3 additional subjects will be enrolled at the same dose level for a total of at least 6 subjects. If no further DLT(s) are observed, escalation to the next higher dose level cohort will occur. If a second DLT is observed, 3 additional subjects will be enrolled at the same dose level for a total of at least 9 subjects. If no further DLTs are observed, dose escalation to the next higher dose level will occur. If ≥3 DLTs are observed in the first 3 to 9 subjects, then enrolment stops at the third DLT observation and enrolment into a cohort at a lower dose level will be considered.\nDose escalation consists of up to 8 cohorts of 3 to 9 evaluable subjects each. Initially, up to 4 subjects may enroll into a cohort. The planned cohort dose levels are as follows: QD cohorts, cohort 1, 25 mg; cohort 2, 50 mg; cohort 3, 100 mg; cohort 3A, 150 mg; cohort 4, 200 mg; cohort 5, 300 mg; cohort 6, 400 mg; and cohort 7, 500 mg; BID cohorts, cohort B1 100 mg, cohort B2 150 mg, cohort B3 200 mg. The MTD is defined as the highest dose level with an observed incidence of DLT in <33% of subjects enrolled in a cohort. At least 6 subjects will be treated at the MTD. An expansion cohort of up to 20 subjects at the MTD (determined in the dose escalation portion) will be considered to obtain further safety, PK, and efficacy data.\n(§2) The 300-mg dose was identified as an MTD for QD dosing schedule and the recommended phase 2 dose. Twice daily dose escalation is currently ongoing and the MTD has not yet been determined as of the data cutoff date. As of the data cutoff date of 23 Jul. 2014, tumor-response data were available from 84 subjects in Study 20101132, including data on 62 subjects with >1 post-screening Response Evaluation Criteria in Solid Tumors (RECIST) tumor measurement by central read (22 subjects had screening data only). […] Of these 7 responders, 6 had gastric, gastroesophageal junction (GEJ) or esophageal adenocarcinoma with evidence of MET amplification identified by fluorescence in-situ hybridization assay performed by an experienced local laboratory per regulatory guideline."}, "advanced solid tumors": {"tested_on": "advanced solid tumors", "assay": "Phase 1 Study 20101132 tumor response (RECIST)", "assay_type": "in vivo, human", "design": "key to Best Response (RESIST): CR—complete response; PD—progressive disease; PR—partial response", "source_text": "as §1, §2\nMET amplification in gastric cancer samples was determined as follows, formalin fixed, paraffin embedded (FFPE) sections are pretreated with a paraffin pretreatment reagent to deparafffinize the sections. Sections with sufficient tumor material are hybridized with MET and chromosome 7 probes and analyzed using a fluorescent microscope. Standard FISH scoring practices were used to assess MET amplification. Samples of sufficient quality were reviewed by a pathologist and to assess MET copy number 20 individual, intact nuclei within a sample were identified. Copy number of the MET gene and the chromosome 7 probe were quantitated for each nuclei and an average copy number per nuclei is calculated to yield a score for an individual sample. A ratio of MET to Chromosome 7 (CEN 7) copy number was calculated to yield the ratio score per sample. Initial results were conducted using a laboratory developed test (FISH Ratio 1) and confirmed on a second test at a central lab (FISH Ratio 2) in Table 2."}, "[3]": {"details": "of 62 subjects with post-screening RECIST measurement, cutoff 23 Jul. 2014"}},
  "data": [
    {"smiles": "COCCOc1cnc2ccn([C@H](C)c3nnc4c(F)cc(-c5cnn(C)c5)cn34)c(=O)c2c1", "note": "[Compound M, 6-{(1R)-1-[8-fluoro-6-(1-methyl-1H-pyrazol-4-yl)[1,2,4]triazolo[4,3-a]pyridin-3-yl]ethyl}-3-(2-methoxyethoxy)-1,6-naphthyridin-5(6H)-one]", "values": [
      {"measurement": "Phosphorylation of Gab1 (Y627)", "setting": "[1]", "value": "inhibited"},
      {"measurement": "Phosphorylation of MET (Y1234/1235)", "setting": "[1]", "value": "inhibited"},
      {"measurement": "phospho-AKT (S473), PI3K pathway", "setting": "[1]", "value": "reduction"},
      {"measurement": "phospho-ERK (T202/Y204), MAPK pathway", "setting": "[1]", "value": "reduction"},
      {"measurement": "MTD and recommended phase 2 dose", "setting": "[2]; QD dosing schedule", "value": 300, "unit": "mg"},
      {"measurement": "adverse event: anemia", "setting": "[2]; human, in vivo", "value": 21.1, "unit": "%"},
      {"measurement": "adverse event: aspartate aminotransferase (AST) increased", "setting": "[2]; human, in vivo", "value": 10, "unit": "%"},
      {"measurement": "adverse event: back pain", "setting": "[2]; human, in vivo", "value": 15.6, "unit": "%"},
      {"measurement": "adverse event: constipation", "setting": "[2]; human, in vivo", "value": 23.3, "unit": "%"},
      {"measurement": "adverse event: decreased appetite", "setting": "[2]; human, in vivo", "value": 16.7, "unit": "%"},
      {"measurement": "adverse event: diarrhea", "setting": "[2]; human, in vivo", "value": 15.6, "unit": "%"},
      {"measurement": "adverse event: dizziness", "setting": "[2]; human, in vivo", "value": 10, "unit": "%"},
      {"measurement": "adverse event: dry skin", "setting": "[2]; human, in vivo", "value": 12.2, "unit": "%"},
      {"measurement": "adverse event: dyspnea", "setting": "[2]; human, in vivo", "value": 15.6, "unit": "%"},
      {"measurement": "adverse event: fatigue", "setting": "[2]; human, in vivo", "value": 40, "unit": "%"},
      {"measurement": "adverse event: headache", "setting": "[2]; human, in vivo", "value": 64.4, "unit": "%"},
      {"measurement": "adverse event: hypoalbuminemia", "setting": "[2]; human, in vivo", "value": 20, "unit": "%"},
      {"measurement": "adverse event: myalgia", "setting": "[2]; human, in vivo", "value": 12.2, "unit": "%"},
      {"measurement": "adverse event: nausea", "setting": "[2]; human, in vivo", "value": 43.3, "unit": "%"},
      {"measurement": "adverse event: peripheral edema", "setting": "[2]; human, in vivo", "value": 18.9, "unit": "%"},
      {"measurement": "adverse event: rash", "setting": "[2]; human, in vivo", "value": 11.1, "unit": "%"},
      {"measurement": "adverse event: vomiting", "setting": "[2]; human, in vivo", "value": 26.7, "unit": "%"},
      {"measurement": "Best Response (RESIST)", "setting": "advanced solid tumors; Subject A, Esophageal, FISH ratio 4.2 local, 8.41 central", "value": "CR"},
      {"measurement": "Best Response (RESIST)", "setting": "advanced solid tumors; Subject B, Gastroesophageal, FISH ratio 2.3 local, 3.09 central", "value": "PD"},
      {"measurement": "Best Response (RESIST)", "setting": "advanced solid tumors; Subject C, Gastric Adenocarcinoma, FISH ratio 4.1 local", "value": "PR"},
      {"measurement": "Best Response (RESIST)", "setting": "advanced solid tumors; Subject D, Esophageal, FISH ratio 4.3 local, 7.31 central", "value": "PR"},
      {"measurement": "Best Response (RESIST)", "setting": "advanced solid tumors; Subject E, Gastric Adenocarcinoma, FISH local: suspected", "value": "PR"},
      {"measurement": "Best Response (RESIST)", "setting": "advanced solid tumors; Subject F, Gastric Carcinoma, FISH ratio 4.24 local, 6.54 central", "value": "PD"},
      {"measurement": "Best Response (RESIST)", "setting": "advanced solid tumors; Subject H, Gastroesophageal Junction, Non-amp, FISH ratio 1.06 central", "value": "PD"},
      {"measurement": "Best Response (RESIST)", "setting": "advanced solid tumors; Subject I, Esophageal, Non-amp, FISH ratio 1.00 central", "value": "PD"},
      {"measurement": "Best Response (RESIST)", "setting": "advanced solid tumors; Subject J, Gastric Adenocarcinoma, Non-amp, FISH ratio 1.00 central", "value": "PD"},
      {"measurement": "subjects with a complete response", "setting": "advanced solid tumors; [3]", "value": 1, "unit": "subject"},
      {"measurement": "subjects with a partial response", "setting": "advanced solid tumors; [3]", "value": 6, "unit": "subjects"},
      {"measurement": "clinical response, tumor reduction by RECIST v1.1", "setting": "advanced solid tumors; subjects with focal MET amplification, MET FISH ratio ≥2.0", "value": "measurable clinical response"},
      {"measurement": "clinical response, tumor reduction by RECIST v1.1", "setting": "advanced solid tumors; subjects without focal MET amplification", "value": "no measurable clinical response"}
    ]}
  ]
}
